Source: paper PMC9403976, “Elucidating the path to Plasmodium prolyl-tRNA synthetase inhibitors that overcome halofuginone resistance” (Nature Communications, 2022)
Several values for one entry are separate records, joined by “and”; a condition that tells them apart may be missing. Identical values can stand only once. Like-named read-outs stand apart in the source and are kept apart here.

Experiments:
P. falciparum Dd2-2D4 = test: P. falciparum asexual blood stage (ABS) growth assay, SYBR Green, 72 h, wild-type parasites; format: cell-based, Plasmodium falciparum; settings: for ABS growth dose-response, normalized signal (Replicates 1-3): Dd2-2D4
[1] = tested on: halofuginone-induced P. falciparum (elevated proline homeostasis); test: P. falciparum ABS growth assay, SYBR Green, 72 h, halofuginone-induced parasites; format: cell-based, Plasmodium falciparum; settings: Halofuginone-Induced (HFG-Induced)
Summary of the method: (§1)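 Dd2-derived erythrocytic-stage parasites at 1% parasitemia and 1% hematocrit in RPMI + 0.5% Albumax were exposed to compounds in triplicate dose-response. Controls were 10 μM dihydroartemisinin (kill) and no-compound wells (growth). Growth was read by SYBR Green 1 fluorescence after 72 h and used to derive EC50.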

[2] = tested on: HFGR-I P. falciparum (elevated proline homeostasis and PfcProRS^L482H); test: P. falciparum ABS growth assay, SYBR Green, 72 h, HFGR-I parasites; format: cell-based, Plasmodium falciparum; settings: HFGR-I
Summary of the method: as §1

PfcProRS = biological target: T1, PfcProRS (Plasmodium falciparum, UniProt Q8I5R7); format: binding; settings: for dose-response signal (normalized), SI Fig 8: single replicates
T1 construct: made in house; host or cells: E. coli SoluBL-21
T1 sequence (Q8I5R7 249-746): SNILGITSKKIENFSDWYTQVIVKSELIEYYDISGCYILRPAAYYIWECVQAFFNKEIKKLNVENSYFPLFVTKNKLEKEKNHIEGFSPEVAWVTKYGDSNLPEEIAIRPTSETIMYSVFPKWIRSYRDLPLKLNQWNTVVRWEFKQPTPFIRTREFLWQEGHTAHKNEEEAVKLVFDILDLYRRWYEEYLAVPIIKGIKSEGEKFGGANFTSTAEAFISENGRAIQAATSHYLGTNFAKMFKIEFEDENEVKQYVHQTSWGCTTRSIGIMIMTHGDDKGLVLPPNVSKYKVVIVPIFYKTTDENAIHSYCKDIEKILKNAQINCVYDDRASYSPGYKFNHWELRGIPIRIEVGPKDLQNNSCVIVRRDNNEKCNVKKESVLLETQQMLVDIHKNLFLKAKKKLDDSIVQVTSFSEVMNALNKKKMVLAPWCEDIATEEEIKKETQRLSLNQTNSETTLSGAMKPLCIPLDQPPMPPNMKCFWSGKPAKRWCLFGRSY

HsProRS = HsProRS (Homo sapiens, UniProt P07814); test: TR-FRET ligand displacement assay with tracer MAT379 (CoraFluor-1-Halo and anti-His6 antibody formats); format: binding; set-up: made in house; host or cells: E. coli SoluBL-21; settings: for TR-FRET dose-response, normalized signal (SI Fig 11): individual replicates
Sequence of HsProRS (P07814 996-1512): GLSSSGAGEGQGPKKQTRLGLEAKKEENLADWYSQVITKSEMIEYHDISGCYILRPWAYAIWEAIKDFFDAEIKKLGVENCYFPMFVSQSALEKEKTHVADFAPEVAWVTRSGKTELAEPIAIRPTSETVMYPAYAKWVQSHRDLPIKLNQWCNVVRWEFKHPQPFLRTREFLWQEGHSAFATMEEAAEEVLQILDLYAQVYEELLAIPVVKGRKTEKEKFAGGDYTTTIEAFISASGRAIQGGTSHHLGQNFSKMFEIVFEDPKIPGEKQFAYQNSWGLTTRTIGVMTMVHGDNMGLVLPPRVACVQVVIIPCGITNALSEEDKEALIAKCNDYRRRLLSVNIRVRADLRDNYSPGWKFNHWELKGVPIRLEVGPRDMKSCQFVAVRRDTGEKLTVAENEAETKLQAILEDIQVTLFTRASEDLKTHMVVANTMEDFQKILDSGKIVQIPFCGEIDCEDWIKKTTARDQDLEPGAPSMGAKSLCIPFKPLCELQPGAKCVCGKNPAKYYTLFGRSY

CC(C)(C)OC(=O)NC1CCN(C(=O)Nc2nccnc2C(=O)NC2Cc3ccccc3C2)CC1 [compound 7]
ABS growth dose-response, normalized signal (Replicates 1-3) (P. falciparum Dd2-2D4; Log[inhibitor] (M) -5.000): 1 | ABS growth dose-response, normalized signal (Replicates 1-3) (P. falciparum Dd2-2D4; Log[inhibitor] (M) -5.301): 1 | ABS growth dose-response, normalized signal (Replicates 1-3) (P. falciparum Dd2-2D4; Log[inhibitor] (M) -5.602): 1 | ABS growth dose-response, normalized signal (Replicates 1-3) (P. falciparum Dd2-2D4; Log[inhibitor] (M) -5.903): 1 | ABS growth dose-response, normalized signal (Replicates 1-3) (P. falciparum Dd2-2D4; Log[inhibitor] (M) -6.505): 1 | EC50 (P. falciparum Dd2-2D4; Plasmodium falciparum, DD2, SI Fig 16b, values on -log scale, read-out: ABS - Dd2-2D4 (converted)): 90.6 nM | ABS growth dose-response, normalized signal (Replicates 1-3) ([1]; Log[inhibitor] (M) -5.000): 8 and 7 and 3 | ABS growth dose-response, normalized signal (Replicates 1-3) ([1]; Log[inhibitor] (M) -5.301): 22 and 9 and 15 | ABS growth dose-response, normalized signal (Replicates 1-3) ([1]; Log[inhibitor] (M) -5.602): 34 and 37 and 32 | ABS growth dose-response, normalized signal (Replicates 1-3) ([1]; Log[inhibitor] (M) -5.903): 93 and 89 and 84 | ABS growth dose-response, normalized signal (Replicates 1-3) ([1]; Log[inhibitor] (M) -6.204): 92 and 98 and 96 | ABS growth dose-response, normalized signal (Replicates 1-3) ([1]; Log[inhibitor] (M) -6.505): 98 and 96 and 105 | ABS growth dose-response, normalized signal (Replicates 1-3) ([1]; Log[inhibitor] (M) -6.806): 103 (2×) and 107 | ABS growth dose-response, normalized signal (Replicates 1-3) ([1]; Log[inhibitor] (M) -7.107): 109 (2×) and 104 | ABS growth dose-response, normalized signal (Replicates 1-3) ([1]; Log[inhibitor] (M) -7.408): 106 and 107 and 102 | ABS growth dose-response, normalized signal (Replicates 1-3) ([1]; Log[inhibitor] (M) -7.709): 107 and 106 and 101 | ABS growth dose-response, normalized signal (Replicates 1-3) ([1]; Log[inhibitor] (M) -8.010): 100 and 99 and 106 | ABS growth dose-response, normalized signal (Replicates 1-3) ([1]; Log[inhibitor] (M) -8.311): 109 and 100 and 99 | ABS growth dose-response, normalized signal (Replicates 1-3) ([2]; Log[inhibitor] (M) -5.000): 7 (2×) and 6 | ABS growth dose-response, normalized signal (Replicates 1-3) ([2]; Log[inhibitor] (M) -5.301): 18 and 21 and 24 | ABS growth dose-response, normalized signal (Replicates 1-3) ([2]; Log[inhibitor] (M) -5.602): 51 and 50 and 48 | ABS growth dose-response, normalized signal (Replicates 1-3) ([2]; Log[inhibitor] (M) -5.903): 103 and 100 and 102 | ABS growth dose-response, normalized signal (Replicates 1-3) ([2]; Log[inhibitor] (M) -6.204): 99 and 103 and 101 | ABS growth dose-response, normalized signal (Replicates 1-3) ([2]; Log[inhibitor] (M) -6.505): 106 and 103 and 101 | ABS growth dose-response, normalized signal (Replicates 1-3) ([2]; Log[inhibitor] (M) -6.806): 100 and 103 and 108 | ABS growth dose-response, normalized signal (Replicates 1-3) ([2]; Log[inhibitor] (M) -7.107): 110 and 105 and 104 | ABS growth dose-response, normalized signal (Replicates 1-3) ([2]; Log[inhibitor] (M) -7.408): 103 and 110 and 105 | ABS growth dose-response, normalized signal (Replicates 1-3) ([2]; Log[inhibitor] (M) -7.709): 107 and 102 and 105 | ABS growth dose-response, normalized signal (Replicates 1-3) ([2]; Log[inhibitor] (M) -8.010): 102 and 103 and 101 | ABS growth dose-response, normalized signal (Replicates 1-3) ([2]; Log[inhibitor] (M) -8.311): 104 (2×) and 102 | dose-response signal (normalized), SI Fig 8 (PfcProRS; Log[inhibitor] (M) -5.000): 9.23E-03 and -2.50E-03 and -6.65E-02 | dose-response signal (normalized), SI Fig 8 (PfcProRS; Log[inhibitor] (M) -5.301): -5.43E-02 and 1.65E-02 and -1.76E-02 | dose-response signal (normalized), SI Fig 8 (PfcProRS; Log[inhibitor] (M) -5.601): 6.03E-02 and 2.26E-02 and 5.28E-02 | dose-response signal (normalized), SI Fig 8 (PfcProRS; Log[inhibitor] (M) -5.904): 2.65E-02 and 5.41E-02 and 9.36E-02 | dose-response signal (normalized), SI Fig 8 (PfcProRS; Log[inhibitor] (M) -6.208): 2.38E-02 and 1.39E-01 and 9.30E-02 | dose-response signal (normalized), SI Fig 8 (PfcProRS; Log[inhibitor] (M) -6.509): 2.08E-01 and 1.27E-01 and 1.08E-01 | dose-response signal (normalized), SI Fig 8 (PfcProRS; Log[inhibitor] (M) -6.796): 2.54E-01 and 2.41E-01 and 3.20E-01 | dose-response signal (normalized), SI Fig 8 (PfcProRS; Log[inhibitor] (M) -7.108): 4.18E-01 and 3.78E-01 and 4.14E-01 | dose-response signal (normalized), SI Fig 8 (PfcProRS; Log[inhibitor] (M) -7.409): 5.88E-01 and 6.84E-01 and 5.75E-01 | dose-response signal (normalized), SI Fig 8 (PfcProRS; Log[inhibitor] (M) -7.710): 7.68E-01 and 7.32E-01 and 7.90E-01 | dose-response signal (normalized), SI Fig 8 (PfcProRS; Log[inhibitor] (M) -8.000): 9.75E-01 and 1.04E+00 and 8.35E-01 | dose-response signal (normalized), SI Fig 8 (PfcProRS; Log[inhibitor] (M) -8.301): 9.24E-01 and 9.28E-01 and 8.42E-01 | dose-response signal (normalized), SI Fig 8 (PfcProRS; Log[inhibitor] (M) -8.602): 1.04E+00 and 8.85E-01 and 9.51E-01 | dose-response signal (normalized), SI Fig 8 (PfcProRS; Log[inhibitor] (M) -9.000): 1.00E+00 and 1.08E+00 and 9.49E-01 | dose-response signal (normalized), SI Fig 8 (PfcProRS; Log[inhibitor] (M) -9.301): 9.78E-01 and 9.98E-01 and 9.79E-01 | PfcProRS -- best Kd (PfcProRS; SI Fig 16a, values on -log scale): 7.883 | Kd (PfcProRS; read-out: PfcProRS (KD [nM]) + proline): 13.2 nM | Kd (HsProRS; HsProRS (KD [nM]) + proline, 100 μM proline, 250 nM MAT379): 34.8 nM | Kd (HsProRS; HsProRS - best Kd, SI Fig 16a, values on -log scale): 22.1 nM | normalized TR-FRET ligand displacement signal, dose-response replicates (SI Fig 6) (HsProRS; Log[inhibitor] (M) -5.000): -1.10E-01 and -3.98E-02 and -5.51E-02 | TR-FRET dose-response, normalized signal (SI Fig 11) (HsProRS; Log[inhibitor] (M) -5.000): 5.88E-02 and 4.63E-03 and 1.20E-02 | normalized TR-FRET ligand displacement signal, dose-response replicates (SI Fig 6) (HsProRS; Log[inhibitor] (M) -5.301): -3.29E-02 and -2.98E-02 and -2.55E-02 | TR-FRET dose-response, normalized signal (SI Fig 11) (HsProRS; Log[inhibitor] (M) -5.301): 8.22E-04 and 1.04E-02 and 2.94E-02 | normalized TR-FRET ligand displacement signal, dose-response replicates (SI Fig 6) (HsProRS; Log[inhibitor] (M) -5.601): -4.70E-04 and 4.94E-02 and -1.17E-02 | TR-FRET dose-response, normalized signal (SI Fig 11) (HsProRS; Log[inhibitor] (M) -5.601): 2.44E-02 and 7.65E-03 and 4.65E-02 | normalized TR-FRET ligand displacement signal, dose-response replicates (SI Fig 6) (HsProRS; Log[inhibitor] (M) -5.904): -2.26E-02 and 7.29E-03 and -6.02E-02 | TR-FRET dose-response, normalized signal (SI Fig 11) (HsProRS; Log[inhibitor] (M) -5.904): 5.49E-02 and 5.79E-02 and 5.68E-02 | normalized TR-FRET ligand displacement signal, dose-response replicates (SI Fig 6) (HsProRS; Log[inhibitor] (M) -6.208): 5.82E-02 and 7.95E-02 and 2.06E-02 | TR-FRET dose-response, normalized signal (SI Fig 11) (HsProRS; Log[inhibitor] (M) -6.208): 4.71E-02 and 4.91E-02 and 7.38E-02 | normalized TR-FRET ligand displacement signal, dose-response replicates (SI Fig 6) (HsProRS; Log[inhibitor] (M) -6.509): 1.24E-02 and 1.36E-01 and 1.19E-01 | TR-FRET dose-response, normalized signal (SI Fig 11) (HsProRS; Log[inhibitor] (M) -6.509): 1.27E-01 and 1.07E-01 and 8.54E-02 | normalized TR-FRET ligand displacement signal, dose-response replicates (SI Fig 6) (HsProRS; Log[inhibitor] (M) -6.796): 2.14E-01 and 2.70E-01 and 2.50E-01 | TR-FRET dose-response, normalized signal (SI Fig 11) (HsProRS; Log[inhibitor] (M) -6.796): 1.74E-01 and 1.79E-01 and 1.50E-01 | normalized TR-FRET ligand displacement signal, dose-response replicates (SI Fig 6) (HsProRS; Log[inhibitor] (M) -7.108): 3.41E-01 and 3.62E-01 and 3.83E-01 | TR-FRET dose-response, normalized signal (SI Fig 11) (HsProRS; Log[inhibitor] (M) -7.108): 2.66E-01 and 2.89E-01 and 3.00E-01 | normalized TR-FRET ligand displacement signal, dose-response replicates (SI Fig 6) (HsProRS; Log[inhibitor] (M) -7.409): 5.14E-01 and 5.24E-01 and 5.91E-01 | TR-FRET dose-response, normalized signal (SI Fig 11) (HsProRS; Log[inhibitor] (M) -7.409): 4.26E-01 and 3.87E-01 and 4.16E-01 | normalized TR-FRET ligand displacement signal, dose-response replicates (SI Fig 6) (HsProRS; Log[inhibitor] (M) -7.710): 7.15E-01 and 7.22E-01 and 6.26E-01 | TR-FRET dose-response, normalized signal (SI Fig 11) (HsProRS; Log[inhibitor] (M) -7.710): 5.82E-01 and 5.49E-01 and 5.55E-01 | normalized TR-FRET ligand displacement signal, dose-response replicates (SI Fig 6) (HsProRS; Log[inhibitor] (M) -8.000): 9.10E-01 and 9.20E-01 and 8.83E-01 | TR-FRET dose-response, normalized signal (SI Fig 11) (HsProRS; Log[inhibitor] (M) -8.000): 7.19E-01 and 6.97E-01 and 7.02E-01 | normalized TR-FRET ligand displacement signal, dose-response replicates (SI Fig 6) (HsProRS; Log[inhibitor] (M) -8.301): 9.29E-01 and 8.45E-01 and 8.62E-01 | TR-FRET dose-response, normalized signal (SI Fig 11) (HsProRS; Log[inhibitor] (M) -8.301): 8.41E-01 and 8.30E-01 and 7.96E-01 | normalized TR-FRET ligand displacement signal, dose-response replicates (SI Fig 6) (HsProRS; Log[inhibitor] (M) -8.602): 1.00E+00 and 9.03E-01 and 8.98E-01 | TR-FRET dose-response, normalized signal (SI Fig 11) (HsProRS; Log[inhibitor] (M) -8.602): 8.68E-01 and 8.38E-01 and 8.61E-01 | normalized TR-FRET ligand displacement signal, dose-response replicates (SI Fig 6) (HsProRS; Log[inhibitor] (M) -9.000): 9.68E-01 and 8.42E-01 and 9.66E-01 | TR-FRET dose-response, normalized signal (SI Fig 11) (HsProRS; Log[inhibitor] (M) -9.000): 9.12E-01 and 9.38E-01 and 9.42E-01 | normalized TR-FRET ligand displacement signal, dose-response replicates (SI Fig 6) (HsProRS; Log[inhibitor] (M) -9.301): 9.89E-01 and 9.63E-01 and 1.01E+00 | TR-FRET dose-response, normalized signal (SI Fig 11) (HsProRS; Log[inhibitor] (M) -9.301): 9.41E-01 and 9.42E-01 and 9.34E-01
